Assay results: the supplement of paper PMC4862054
Several values for one entry are separate records, joined by “and”; a condition that tells them apart may be missing. Equal values may be shown once.

How the values were obtained:
Details in all cases: incubation time: 72 h
MDA-MB-453 [1] = assay: drug sensitivity score (DSS), CellTox Green (DSS (AUC-based score)); higher = stronger drug effect (viability inhibition or cytotoxicity); extreme values may be limits of the assay
Method in brief: (§1)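 Breast cancer cell lines, seeded as 20 µl suspension, were incubated 72 h with compound in 384-well plates at 5 concentrations in 10-fold steps over a 10,000-fold range set for each compound. Fluorescence from CellTox Green was read at 485/520 nm before CellTiter-Glo luminescence, which was read after 10 min at room temperature. Every plate was normalised to 0.1 % DMSO and a positive kill control, and the drug sensitivity score was taken from the area under the fitted dose-response curve.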

Hs578T = assay: as above
Method in brief: as §1

DU-4475 = assay: as above
Method in brief: as §1

HDQ-P1 = assay: as above
Method in brief: as §1

CAL-120 = assay: as above
Method in brief: as §1

MDA-MB-436 [2] = assay: as above
Method in brief: as §1

CAL-148 [3] = assay: as above
Method in brief: as §1

HCC1143 [4] = assay: as above
Method in brief: as §1

CAL-51 [5] = assay: as above
Method in brief: as §1

CAL-85-1 = assay: as above
Method in brief: as §1

MCF-10A = assay: as above
Method in brief: as §1

BT-549 [6] = assay: as above
Method in brief: as §1

MFM-223 = assay: as above
Method in brief: as §1

MDA-MB-231 [7] = assay: as above
Method in brief: as §1

HCC1937 [8] = assay: as above
Method in brief: as §1

HCC1599 [9] = assay: as above
Method in brief: as §1

MDA-MB-468 = assay: as above
Method in brief: as §1

BT-474 [10] = assay: as above
Method in brief: as §1

MDA-MB-453 [11] = assay: normalised viability (% of control), CellTiter-Blue; higher = more viable cells (about 100 = DMSO control)
Method in brief: (§2)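 Breast cancer cell lines in 20 µl suspension were seeded onto 384-well plates pre-loaded with compound dissolved in 5 µl medium, then incubated 72 h. CellTiter-Blue reagent (2.5 µl) was added for 2 h at 37 °C and fluorescence read at 560/590 nm. Each plate was normalised to vehicle (100) and a positive kill control (0), with Z'-factor quality control. The value is normalised viability at one listed concentration of the series.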

MDA-MB-436 [12] = assay: as above
Method in brief: as §2

CAL-148 [13] = assay: as above
Method in brief: as §2

CAL-51 [14] = assay: as above
Method in brief: as §2

BT-549 [15] = assay: as above
Method in brief: as §2

HCC1937 [16] = assay: as above
Method in brief: as §2

HCC1599 [17] = assay: as above
Method in brief: as §2

BT-474 [18] = assay: as above
Method in brief: as §2

HCC1143 [19] = assay: as above
Method in brief: as §2

MDA-MB-231 [20] = assay: as above
Method in brief: as §2

Structure (SMILES)	drug sensitivity score (MDA-MB-453 [1])	drug sensitivity score (Hs578T)	drug sensitivity score (DU-4475)	drug sensitivity score (HDQ-P1)	drug sensitivity score (CAL-120)	drug sensitivity score (MDA-MB-436 [2])	drug sensitivity score (CAL-148 [3])	drug sensitivity score (HCC1143 [4])	drug sensitivity score (CAL-51 [5])	drug sensitivity score (CAL-85-1)	drug sensitivity score (MCF-10A)	drug sensitivity score (BT-549 [6])	drug sensitivity score (MFM-223)	drug sensitivity score (MDA-MB-231 [7])	drug sensitivity score (HCC1937 [8])	drug sensitivity score (HCC1599 [9])	drug sensitivity score (MDA-MB-468)	drug sensitivity score (BT-474 [10])	other results
CO[C@H]1C[C@@H]2CC[C@@H](C)[C@@](O)(O2)C(=O)C(=O)N2CCCC[C@H]2C(=O)O[C@H]([C@H](C)C[C@@H]2CC[C@@H](OCCO)[C@H](OC)C2)CC(=O)[C@H](C)/C=C(\C)[C@@H](O)[C@@H](OC)C(=O)[C@H](C)C[C@H](C)/C=C/C=C/C=C/1C [Everolimus]	0	0	0	0	0	0	0	0	0	0	0	8.1	5.95	0	0	0	0	0	normalised viability (MDA-MB-453 [11]; 0.3 nM): 71.9% and 70%; normalised viability (MDA-MB-436 [12]; 1 nM): 87.7% and 75.2%; normalised viability (CAL-148 [13]; 0.3 nM): 77.8% and 72.2%; normalised viability (CAL-51 [14]; 0.3 nM): 89.6% and 89.8%; normalised viability (BT-549 [15]; 1 nM): 64.4% and 54.3%; normalised viability (HCC1937 [16]; 1 nM): 52.2% and 56.6%; normalised viability (HCC1599 [17]; 1 nM): 107% and 111%; normalised viability (BT-474 [18]; 1 nM): 76.6% and 65.5%
Cc1cc2c(C(C)C)c(O)c(O)c(C=O)c2c(O)c1-c1c(C)cc2c(C(C)C)c(O)c(O)c(C=O)c2c1O [Gossypol]	–	–	–	–	–	–	–	–	–	–	–	–	–	–	–	–	–	–	normalised viability (MDA-MB-453 [11]; 30 nM): 106%; normalised viability (MDA-MB-436 [12]; 100 nM): 106%; normalised viability (CAL-148 [13]; 30 nM): 94.2%; normalised viability (HCC1143 [19]; 100 nM): 115%; normalised viability (CAL-51 [14]; 30 nM): 97.1%; normalised viability (BT-549 [15]; 100 nM): 114%; normalised viability (MDA-MB-231 [20]; 100 nM): 94.1%; normalised viability (HCC1937 [16]; 100 nM): 116%; normalised viability (HCC1599 [17]; 100 nM): 87.6%; normalised viability (BT-474 [18]; 100 nM): 115%
Nc1nc(OCc2cc(Br)cs2)c2[nH]cnc2n1 [Lomeguatrib]	0	0	0	0	0	0	0	0	0	0	0	0	0	0	1.11	0	0	0	–
Cn1c(=O)n(-c2ccc(C(C)(C)C#N)cc2)c2c3cc(-c4cnc5ccccc5c4)ccc3ncc21 [NVP-BEZ235]	–	–	–	–	–	–	–	–	–	–	–	–	–	–	–	–	–	–	normalised viability (MDA-MB-453 [11]; 0.3 nM): 110%; normalised viability (MDA-MB-436 [12]; 1 nM): 126%; normalised viability (CAL-148 [13]; 0.3 nM): 95.2%; normalised viability (HCC1143 [19]; 1 nM): 83.5%; normalised viability (CAL-51 [14]; 0.3 nM): 105%; normalised viability (BT-549 [15]; 1 nM): 101%; normalised viability (MDA-MB-231 [20]; 1 nM): 97.4%; normalised viability (HCC1937 [16]; 1 nM): 128%; normalised viability (HCC1599 [17]; 1 nM): 104%; normalised viability (BT-474 [18]; 1 nM): 105%
COc1ccccc1S(=O)(=O)Nc1ccc2c(c1)CN(C)C(=O)N2 [PFI-1]	0	0	0	0	0	0	0	0	0	0.65	0	0	0	0	0	0	0	0	–
NS(=O)(=O)OC[C@@H]1C[C@@H](n2ccc3c(N[C@H]4CCc5ccccc54)ncnc32)C[C@@H]1O [Pevonedistat]	0	0.549	4.01	0	0	6.93	0	0	25.3	0	0	0	0	0	0	0.787	7.99	0	–
CNNCc1ccc(C(=O)NC(C)C)cc1 [Procarbazine]	–	0	0	0	0	0	0	0	0	1.2	0	0	0	0	1.67	0	3.72	0	normalised viability (MDA-MB-453 [11]; 3 nM): 114%; normalised viability (MDA-MB-436 [12]; 10 nM): 97%; normalised viability (CAL-148 [13]; 3 nM): 103%; normalised viability (HCC1143 [19]; 10 nM): 93.1%; normalised viability (CAL-51 [14]; 3 nM): 107%; normalised viability (BT-549 [15]; 10 nM): 111%; normalised viability (MDA-MB-231 [20]; 10 nM): 109%; normalised viability (HCC1937 [16]; 10 nM): 87%; normalised viability (HCC1599 [17]; 10 nM): 97.4%; normalised viability (BT-474 [18]; 10 nM): 106%
CN(C)C[C@@H]1CCn2cc(c3ccccc32)C2=C(C(=O)NC2=O)c2cn(c3ccccc23)CCO1 [Ruboxistaurin]	4.68	–	0	2.84	0.954	5.62	10.6	0	9.21	7.2	0	2.34	0	7.98	1.71	0	6.81	17.2	normalised viability (MDA-MB-453 [11]; 3 nM): 94.7%; normalised viability (MDA-MB-436 [12]; 10 nM): 94.1%; normalised viability (CAL-148 [13]; 3 nM): 124%; normalised viability (HCC1143 [19]; 10 nM): 135%; normalised viability (CAL-51 [14]; 3 nM): 98.6%; normalised viability (BT-549 [15]; 10 nM): 85.2%; normalised viability (MDA-MB-231 [20]; 10 nM): 95%; normalised viability (HCC1937 [16]; 10 nM): 44.5%; normalised viability (HCC1599 [17]; 10 nM): 109%; normalised viability (BT-474 [18]; 10 nM): 96.7%
